This is an account of results in patent US20030053995A1 (priority 2001, published 2003).

Read-outs that look alike come from different tables or passages of the source. Starred links: 1 amine or outer side, 2 acyl side, 3 side chain; linkers in the order of their positions; H or OH if unused. Positions of bridges follow the written chain, without caps; N, C: chain ends. Non-standard residues stand in square brackets, D forms with d. Residues, ends and D or L forms follow the SMILES beside them. Chains are numbered I, II in the order given. Actinocin(9to1) = Cc1c2oc3c(C)ccc(C(=O)[*:1])c3nc-2c(C(=O)[*:2])c(N)c1=O; NMeV = CN[C@H](C(=O)O)C(C)C; Sar = CNCC(=O)O

The conditions of series [1]: cited from earlier work; for dose excreted/detected intact in the urine: in vivo; for half-life of disappearance from plasma: after intravenous injection, after distribution; for binding to plasma proteins: result in words.
The conditions of series [2]: cited from earlier work.
The test system of series [3] is ATRS (AT-rich consensus sequence) luciferase reporter with TK minimal promoter. Kind of series: EGF activation of ATRS luciferase reporter. It counts as cell-based. The source says: (FIG. 6A) A431, (FIG. 6B) MDA-MB-468, (FIG. 6C) HBL 100, and (FIG. 6D) CHO cells.
Next, four repeats of either the ATRS sites or the mutated sites were constructed in a luciferase reporter construct containing the mouse thymidine kinase gene (TK) minimal promoter. […] EGFR-dependent activation, however, could be restored in these two cell lines upon the cotransfection of the EGFR expression vector. Thus, the ATRS, which can bind to nuclear EGFR complex, responds to EGFR-dependent activation, whereas the mutant ATRS, which fails to bind to nuclear EGFR, loses it ability to respond to the EGFR-dependent activation.
Plasmids and transfection. The cytoplasmic domain (645-1186), tyrosine kinase domain (645-1011), and C-terminal proline rich region (1011-1086) of human EGFR were amplified by PCR and subcloned in frame into pSG424 to generate for each domain a fusion protein containing GAL4 DNA binding proteins. The fusion protein constructs were then transfected into a variety of cell lines along with GAL4CAT or GAL4Luc reporter plasmids via liposomal DC-Cole provide by Dr. Leaf Huang at University of Pittsburgh.

For series [4], the system named is Cyclin D1 promoter (Cyclin D1-luc) in MDA-MB-468 cells. Kind of series: EGF activation of Cyclin D1 promoter luciferase reporter. It counts as cell-based. Particulars: EGF 100 ng/ml. The source says:
In FIG. 7A, MDA-MB-468 cells were transfected with a luciferase vector containing the cyclin D1 promoter with two intact ATRS or the same promoter with the ATRS mutated. […] After precipitation with the EGFR antibodies (1 Santa Cruz, 2 NeoMarkers) or normal rabbit IgG, cyclin D1 promoter region was amplified by PCR. Input nuclear DNA (In) or water (dw) were used as PCR controls.
Targets for nuclear EGFR were identified. Since nuclear EGFR correlated with highly proliferative activity of cells, it was suspected that its target genes were likely involved in cell proliferation. One of the candidates, Cyclin D1, is a cell-cycle regulator essential for G1 phase progression. […] Two ATRS sequences are located in the proximal region of Cyclin D1 promoter between nucleotide −74 to −70 (TTTAT; SEQ ID NO:3) and −31 to −27 (TTTGT; SEQ ID NO:4), respectively. To test whether these two ATRS in Cyclin D1 promoter were responsive to EGFR activity, the reporter gene containing 163 bp of the Cyclin Dl promoter (Cyclin D1-luc) was tested. Many known transcription factor-binding sites had been eliminated from this construct but it still contained two ATRS described above.

[5] abbreviates: EGFR-overexpressing cell lines A431 and MDA-MB-468, EGF 100 ng/ml.

For the molecule `Cc1c2oc3c(C)ccc(C(=O)N[C@@H]4C(=O)N[C@H](C(C)C)C(=O)N5CCC[C@H]5C(=O)N(C)CC(=O)N(C)[C@@H](C(C)C)C(=O)O[C@@H]4C)c3nc-2c(C(=O)N[C@@H]2C(=O)N[C@H](C(C)C)C(=O)N3CCC[C@H]3C(=O)N(C)CC(=O)N(C)[C@@H](C(C)C)C(=O)O[C@@H]2C)c(N)c1=O` [Actinomycin D] (I: T[dV]P[Sar][NMeV] / II: T[dV]P[Sar][NMeV]; ester I:1-I:C, II:1-II:C; linker I:N-II:N via Actinocin(9to1)), the “dose excreted/detected intact in the urine” value in series [1] is given as 10%.
Regarding `O=NN(CCCl)C(=O)NCCCl` [Carmustine, 1,3bis (2-chloroethyl)-1-nitrosourea], in series [2] (result in words), the “solubility in organic solvents / alcohol and lipids” value is “highly soluble in alcohol and lipids”.
On to `O=NN(CCCl)C(=O)NC1CCCCC1` [Lomustine, 1-(2-chloro-ethyl)-3-cyclohexyl-1 nitrosourea], for which the “tissue levels relative to plasma levels” value in series [1] (15 minutes after intravenous administration) is “comparable to plasma levels”. Further, the results for the solubility in series [2] (10% ethanol), in series [2] (absolute alcohol) and in series [2] (water) were 0.05 mg per mL, 70 mg per mL and below 0.05 mg per mL, respectively.
Turning to `CC[C@]1(O)C[C@@H]2CN(CCc3c([nH]c4ccccc34)[C@@](C(=O)OC)(c3cc4c(cc3OC)N(C)[C@H]3[C@@](O)(C(=O)OC)[C@H](OC(C)=O)[C@]5(CC)C=CCN6CC[C@]43[C@@H]65)C2)C1` [Vinblastine], in series [1] (first of two half-lives), the “half-life of disappearance from plasma” value is “approximately 1 hours”. Further, in series [1] (second of two half-lives), the “half-life of disappearance from plasma” value was around 20 h. Moreover, in series [1], the “dose excreted/detected intact in the urine” value is reported as “Approximately 15%” and the “binding to plasma proteins” value was “bind to plasma proteins”.
On to `CC[C@]1(O)C[C@H]2CN(CCc3c([nH]c4ccccc34)[C@@](C(=O)OC)(c3cc4c(cc3OC)N(C=O)[C@H]3[C@@](O)(C(=O)OC)[C@H](OC(C)=O)[C@]5(CC)C=CCN6CC[C@]43[C@@H]65)C2)C1` [Vincristine], for which the “binding to plasma proteins” value in series [1] is given as “bind to plasma proteins”.
Regarding “EGF: epidermal growth factor, ligand for EGFR”, in series [3] (setting [5]), the “activation of mutant ATRS reporter construct” value is “only weakly activate” and the “activation of wild-type ATRS reporter construct” value is “strongly activate”. Also, the “activation of wild type or mutant ATRS reporter” value in series [3] (cells with low (HBL100) or no EGFR (CHO), EGF 100 ng/ml) is given as “neither wild type nor the mutant reporter could be activated”. For the same molecule, in series [4], the “activation of Cyclin D1-luc(m) reporter with both ATRS mutated” value was “abolished” and the “activation of wild-type Cyclin D1-luc reporter” value is “up to four fold”.
